The values that follow come from ChEMBL document CHEMBL1157938, “Cytotoxicity and inhibition of DNA topoisomerase I of polyhydroxylated triterpenoids and triterpenoid glycosides” (Bioorg Med Chem Lett, 2010).

One may read the IC50 as the concentration needed to halve the response being measured. Read a high IC50 as weaker potency in that assay.

Activity calls are given as the source filed them. The rule behind the calls is not given here. Where only a bound is given, the exact number is not on record here.

Assay [1] has as its system HL-60. Put plainly: Cytotoxicity against human HL60 cells at 25 uM after 48 hrs by WST8 assay. In kind it is functional, cell-based.
For assay [2], the target named is DNA topoisomerase 2-alpha (Homo sapiens, UniProt P11388). Put plainly: Inhibition of human DNA topoisomerase 2-mediated relaxation of supercoiled DNA by gel electrophoresis.
Assay [3] deals with PANC-1. Put plainly: Cytotoxicity against human PANC1 cells at 25 uM after 48 hrs by WST8 assay. Type of assay: functional, cell-based.
The target of assay [4] is T1, DNA topoisomerase 1 (Homo sapiens, UniProt P11387).
T1 sequence (P11387 whole entry): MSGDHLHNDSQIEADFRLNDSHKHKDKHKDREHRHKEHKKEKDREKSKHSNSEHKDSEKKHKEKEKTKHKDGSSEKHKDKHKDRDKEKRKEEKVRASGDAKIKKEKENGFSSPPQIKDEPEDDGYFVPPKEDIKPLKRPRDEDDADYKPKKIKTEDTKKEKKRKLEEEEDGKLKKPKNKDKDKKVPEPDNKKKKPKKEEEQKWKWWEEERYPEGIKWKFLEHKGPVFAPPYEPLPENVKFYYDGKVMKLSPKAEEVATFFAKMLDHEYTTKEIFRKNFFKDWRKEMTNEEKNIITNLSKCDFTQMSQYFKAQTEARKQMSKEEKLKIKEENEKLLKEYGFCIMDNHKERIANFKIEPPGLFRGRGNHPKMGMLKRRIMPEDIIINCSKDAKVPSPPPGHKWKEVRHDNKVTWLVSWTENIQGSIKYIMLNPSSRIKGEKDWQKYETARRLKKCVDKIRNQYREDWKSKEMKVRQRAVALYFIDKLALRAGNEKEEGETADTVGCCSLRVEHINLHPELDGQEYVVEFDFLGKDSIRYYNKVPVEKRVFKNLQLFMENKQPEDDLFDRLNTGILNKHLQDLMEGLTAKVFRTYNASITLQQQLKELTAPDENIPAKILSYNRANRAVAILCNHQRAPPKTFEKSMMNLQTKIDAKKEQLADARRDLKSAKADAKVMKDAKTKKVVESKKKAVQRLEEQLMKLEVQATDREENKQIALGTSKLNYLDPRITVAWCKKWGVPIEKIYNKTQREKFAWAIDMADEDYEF
The assay can be described thus: Inhibition of human DNA topoisomerase 1-mediated relaxation of supercoiled DNA by gel electrophoresis.

Assay [5] has as its system A549. The assay can be described thus: Cytotoxicity against human A549 cells at 25 uM after 48 hrs by WST8 assay. Type of assay: functional, cell-based. (Tetrazolium dyes change colour on reduction, which living cells bring about.)
Assay [6] has as its system PC-3. Put plainly: Cytotoxicity against human PC3 cells at 25 uM after 48 hrs by WST8 assay. In kind it is functional, cell-based.

Chain of DNA topoisomerase 2-alpha (P11388 whole entry): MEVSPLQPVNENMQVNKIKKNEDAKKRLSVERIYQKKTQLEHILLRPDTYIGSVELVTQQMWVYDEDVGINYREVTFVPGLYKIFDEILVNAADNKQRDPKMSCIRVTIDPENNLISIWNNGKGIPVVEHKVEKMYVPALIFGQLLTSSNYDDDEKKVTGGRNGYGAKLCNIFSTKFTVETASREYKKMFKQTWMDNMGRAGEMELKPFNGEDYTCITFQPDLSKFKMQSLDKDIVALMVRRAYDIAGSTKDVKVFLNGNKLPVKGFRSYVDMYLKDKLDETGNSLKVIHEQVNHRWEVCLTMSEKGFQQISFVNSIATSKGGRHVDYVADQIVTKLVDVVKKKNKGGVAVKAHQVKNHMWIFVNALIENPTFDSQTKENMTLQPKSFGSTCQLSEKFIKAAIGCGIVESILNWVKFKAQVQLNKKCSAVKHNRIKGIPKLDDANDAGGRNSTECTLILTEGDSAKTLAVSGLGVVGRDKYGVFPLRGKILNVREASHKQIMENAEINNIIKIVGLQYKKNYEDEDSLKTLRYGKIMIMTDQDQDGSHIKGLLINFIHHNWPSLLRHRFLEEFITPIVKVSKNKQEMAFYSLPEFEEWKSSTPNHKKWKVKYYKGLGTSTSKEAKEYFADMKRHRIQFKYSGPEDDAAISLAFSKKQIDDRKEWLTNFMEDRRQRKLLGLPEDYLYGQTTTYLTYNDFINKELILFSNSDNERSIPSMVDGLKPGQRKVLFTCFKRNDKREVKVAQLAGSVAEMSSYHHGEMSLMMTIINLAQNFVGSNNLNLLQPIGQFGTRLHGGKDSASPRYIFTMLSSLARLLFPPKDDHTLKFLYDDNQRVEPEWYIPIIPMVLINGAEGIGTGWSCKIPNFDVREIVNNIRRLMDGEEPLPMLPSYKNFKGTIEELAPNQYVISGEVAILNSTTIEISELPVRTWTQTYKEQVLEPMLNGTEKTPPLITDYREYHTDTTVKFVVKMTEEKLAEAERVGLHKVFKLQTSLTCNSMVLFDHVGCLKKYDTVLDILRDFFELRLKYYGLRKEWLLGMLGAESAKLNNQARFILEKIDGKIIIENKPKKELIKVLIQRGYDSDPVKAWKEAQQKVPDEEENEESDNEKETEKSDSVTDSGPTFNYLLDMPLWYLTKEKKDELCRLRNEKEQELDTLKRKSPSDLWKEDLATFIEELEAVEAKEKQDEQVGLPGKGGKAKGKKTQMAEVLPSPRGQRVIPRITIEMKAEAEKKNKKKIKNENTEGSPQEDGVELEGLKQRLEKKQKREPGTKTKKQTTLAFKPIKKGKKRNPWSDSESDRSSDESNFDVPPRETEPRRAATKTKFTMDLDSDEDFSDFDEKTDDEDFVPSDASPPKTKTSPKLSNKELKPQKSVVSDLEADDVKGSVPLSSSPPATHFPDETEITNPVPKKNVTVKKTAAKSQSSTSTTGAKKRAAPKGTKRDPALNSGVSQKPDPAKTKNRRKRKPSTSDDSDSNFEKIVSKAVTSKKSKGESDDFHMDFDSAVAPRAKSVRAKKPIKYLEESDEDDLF

With `CC(C)=CCC[C@](C)(O[C@@H]1O[C@H](CO[C@@H]2O[C@H](CO)[C@@H](O)[C@H](O)[C@H]2O)[C@@H](O)[C@H](O)[C@H]1O)[C@H]1CC[C@]2(C)[C@@H]1[C@H](O)C[C@@H]1[C@@]3(C)CC[C@H](O[C@@H]4O[C@H](CO)[C@@H](O)[C@H](O)[C@H]4O[C@@H]4O[C@H](CO)[C@@H](O)[C@H](O)[C@H]4O)C(C)(C)[C@@H]3CC[C@]12C` [GINSENOSIDE RB1], the “growth inhibition (GI)” value in assay [1], in assay [3], in assay [5] and in assay [6] was “inactive” in each case. Further, the IC50 in assay [2] and in assay [4] was greater than 250 µM in each case.

With `CC(C)=CCC[C@](C)(O)[C@H]1CC[C@]2(C)[C@@H]1[C@H](O)C[C@@H]1[C@@]3(C)CC[C@H](O)C(C)(C)[C@@H]3[C@@H](O[C@@H]3O[C@H](CO)[C@@H](O)[C@H](O)[C@H]3O[C@H]3O[C@@H](C)[C@H](O)[C@@H](O)[C@H]3O)C[C@]12C`, the “growth inhibition (GI)” value in assay [1], in assay [3], in assay [5] and in assay [6] was “inactive” throughout. Besides, the IC50 in assay [2] and in assay [4] was greater than 250 µM in each case.

With `CC(C)=CCC[C@](C)(O[C@@H]1O[C@H](CO[C@@H]2OC[C@@H](O)[C@H](O)[C@H]2O)[C@@H](O)[C@H](O)[C@H]1O)[C@H]1CC[C@]2(C)[C@@H]1[C@H](O)C[C@@H]1[C@@]3(C)CC[C@H](O[C@@H]4O[C@H](CO)[C@@H](O)[C@H](O)[C@H]4O[C@@H]4O[C@H](CO)[C@@H](O)[C@H](O)[C@H]4O)C(C)(C)[C@@H]3CC[C@]12C` [GINSENOSIDE RB3], the “growth inhibition (GI)” value in assay [1], in assay [3], in assay [5] and in assay [6] was “inactive” throughout. The IC50 in assay [2] and in assay [4] was greater than 250 µM throughout.

Take `C[C@H]1[C@H](C)CC[C@]2(C(=O)O[C@@H]3O[C@H](CO)[C@@H](O)[C@H](O)[C@H]3O)CC[C@]3(C(=O)O)C(=CC[C@@H]4[C@@]5(C)CC[C@H](O[C@@H]6O[C@H](CO)[C@@H](O[C@H]7O[C@@H](C)[C@H](O)[C@@H](O)[C@H]7O)[C@H](O)[C@H]6O)C(C)(C)[C@@H]5CC[C@]43C)[C@H]12`: the “growth inhibition (GI)” value in assay [1], in assay [3], in assay [5] and in assay [6] was “inactive” each time. Besides, the IC50 in assay [2] and in assay [4] was greater than 250 µM throughout.

Consider `CC(C)=CCC[C@@](C)(O)[C@H]1CC[C@]2(C)[C@@H]1[C@H](O)C[C@@H]1[C@@]3(C)CC[C@H](O[C@@H]4O[C@H](CO)[C@@H](O)[C@H](O)[C@H]4O[C@@H]4O[C@H](CO)[C@@H](O)[C@H](O)[C@H]4O)C(C)(C)[C@@H]3CC[C@]12C`, for which the “growth inhibition (GI)” value in assay [1], in assay [3], in assay [5] and in assay [6] was “inactive” in each case. Also, the 50% inhibitory concentration (IC50) in assay [2] and in assay [4] was greater than 250 µM each time.

With `CC(C)=CCC[C@](C)(O[C@@H]1O[C@H](CO)[C@@H](O)[C@H](O)[C@H]1O)[C@H]1CC[C@]2(C)[C@@H]1[C@H](O)C[C@@H]1[C@@]3(C)CC[C@H](O[C@@H]4O[C@H](CO)[C@@H](O)[C@H](O)[C@H]4O[C@@H]4O[C@H](CO)[C@@H](O)[C@H](O)[C@H]4O)C(C)(C)[C@@H]3CC[C@]12C` [GINSENOSIDE RD], the “growth inhibition (GI)” value in assay [1], in assay [3], in assay [5] and in assay [6] was “inactive” each time. The IC50 in assay [2] and in assay [4] was greater than 250 µM each time.

For the compound `CC(C)=CCC[C@](C)(O[C@@H]1O[C@H](CO[C@H]2O[C@H](CO)[C@@H](O)[C@@H]2O)[C@@H](O)[C@H](O)[C@H]1O)[C@H]1CC[C@]2(C)[C@@H]1[C@H](O)C[C@@H]1[C@@]3(C)CC[C@H](O)C(C)(C)[C@@H]3[C@@H](O)C[C@]12C` [GINSENOSIDE F5], the “growth inhibition (GI)” value in assay [1], in assay [3], in assay [5] and in assay [6] was “inactive” in each case. Besides, the IC50 in assay [2] and in assay [4] was greater than 250 µM each time.

On to `CC(C)=CCC[C@@](C)(O)[C@H]1CC[C@]2(C)[C@@H]1[C@H](O)C[C@@H]1[C@@]3(C)CC[C@H](O)C(C)(C)[C@@H]3[C@@H](O[C@@H]3O[C@H](CO)[C@@H](O)[C@H](O)[C@H]3O[C@H]3O[C@@H](C)[C@H](O)[C@@H](O)[C@H]3O)C[C@]12C`, for which the “growth inhibition (GI)” value in assay [1], in assay [3], in assay [5] and in assay [6] was “inactive” in each case. For the same compound, the IC50 in assay [2] and in assay [4] was greater than 250 µM in each case.

`C[C@H]1[C@H](C)CC[C@]2(C(=O)O[C@@H]3O[C@H](CO)[C@@H](O)[C@H](O)[C@H]3O[C@@H]3OC[C@H](O)[C@H](O)[C@H]3O)CC[C@]3(C(=O)O)C(=CC[C@@H]4[C@@]5(C)CC[C@H](O[C@@H]6O[C@H](CO)[C@@H](O)[C@H](O)[C@H]6O)C(C)(C)[C@@H]5CC[C@]43C)[C@H]12`: the “growth inhibition (GI)” value in assay [1], in assay [3], in assay [5] and in assay [6] was “inactive” in each case. Besides, the IC50 in assay [2] and in assay [4] was greater than 250 µM each time.

With `C[C@H]1[C@H](C)CC[C@]2(C(=O)O[C@@H]3O[C@H](CO)[C@@H](O)[C@H](O)[C@H]3O)CC[C@]3(C(=O)O)C(=CC[C@@H]4[C@@]5(C)CC[C@H](O[C@@H]6O[C@H](CO)[C@@H](O)[C@H](O)[C@H]6O)C(C)(C)[C@@H]5CC[C@]43C)[C@H]12`, the “growth inhibition (GI)” value in assay [1], in assay [3], in assay [5] and in assay [6] was “inactive” in each case. The IC50 in assay [2] and in assay [4] was greater than 250 µM throughout.

`C=C(C)[C@@H]1CC[C@]2(C)CC[C@]3(C)[C@@H](CC[C@@H]4[C@@]5(C)CC[C@H](OC(C)=O)C(C)(C)[C@@H]5CC[C@]43C)[C@H]12`: the “growth inhibition (GI)” value in assay [1], in assay [3], in assay [5] and in assay [6] was “inactive” each time. In assay [2], this compound showed an IC50 greater than 250 µM.

In the case of `CC(C)=CCC[C@](C)(O[C@@H]1O[C@H](CO[C@@H]2O[C@H](CO)[C@@H](O)[C@H](O)[C@H]2O)[C@@H](O)[C@H](O)[C@H]1O)[C@H]1CC[C@]2(C)[C@@H]1[C@H](O)C[C@@H]1[C@@]3(C)CC[C@H](O[C@@H]4O[C@H](CO)[C@@H](O)[C@H](O)[C@H]4O)C(C)(C)[C@@H]3CC[C@]12C` [GYPENOSIDE XVII], the “growth inhibition (GI)” value in assay [1], in assay [3], in assay [5] and in assay [6] was “inactive” in each case. The IC50 in assay [2] and in assay [4] was greater than 250 µM throughout.

Take `CC(C)=CCC[C@](C)(O[C@@H]1O[C@H](CO)[C@@H](O)[C@H](O)[C@H]1O)[C@H]1CC[C@]2(C)[C@@H]1[C@H](O)C[C@@H]1[C@@]3(C)CC[C@H](O)C(C)(C)[C@@H]3[C@@H](O[C@@H]3O[C@H](CO)[C@@H](O)[C@H](O)[C@H]3O[C@@H]3O[C@@H](C)[C@H](O)[C@@H](O)[C@H]3O)C[C@]12C` [GINSENOSIDE RE]: the “growth inhibition (GI)” value in assay [1], in assay [3], in assay [5] and in assay [6] was “inactive” throughout. For the same compound, the IC50 in assay [2] and in assay [4] was greater than 250 µM in each case.

As to `C=C(C)[C@@H]1CC[C@]2(C)CC[C@]3(C)[C@H](CC[C@@H]4[C@@]5(C)CC[C@H](O)C(C)(C)[C@@H]5CC[C@]43C)[C@@H]12` [LUPEOL], the “growth inhibition (GI)” value in assay [1], in assay [3], in assay [5] and in assay [6] was “inactive” each time. In addition, in assay [2], the IC50 was greater than 250 µM.
